The values that follow come from ChEMBL document CHEMBL6092168, “Identification of novel indolinone derivatives as CTSC inhibitors to treat inflammatory bowel disease by modulating inflammatory factors” (Eur J Med Chem, 2024).

For series [1], the system named is Mus musculus. Put plainly: Anti-inflammatory activity in DSS-induced ulcerative colitis male C57BL/6 mouse model assessed as reduction in neutrophil elastase level in colon at 15 to 30 mg/kg administered via gavage for 10 days. The format is functional, organism-based. The following applies: dose 15-30 mg/kg, time 10.0 day.
The test system of series [2] is Mus musculus. The series can be described thus: Anti-inflammatory activity in DSS-induced ulcerative colitis male C57BL/6 mouse model assessed as reduction in IL-1 beta expression in serum administered via gavage for 10 days by ELISA. It counts as functional, organism-based. The following applies: dose 15-60 mg/kg, time 10.0 day.
The test system of series [3] is Mus musculus. The series can be described thus: Anti-inflammatory activity in DSS-induced ulcerative colitis male C57BL/6 mouse model assessed as reduction in IL-1 beta expression in colon administered via gavage for 10 days by ELISA. The following applies: dose 15-60 mg/kg, time 10.0 day. It counts as functional, organism-based.
The test system of series [4] is Mus musculus. Put plainly: Anti-inflammatory activity in DSS-induced ulcerative colitis male C57BL/6 mouse model assessed as reduction in Cathepsin C level in colon at 60 mg/kg administered via gavage for 10 days. The format is functional. The arrangement: scale not given: the % may be the effect or the level left. The following applies: time 10 day.
The target in the next series is Dipeptidyl peptidase 1 (Homo sapiens, UniProt P53634). Put plainly: Induction of thermal stabilization of Cathepsin C in human U-937 cell incubated for 1 hrs at 37 to 65 degreeC by CETSA based Western blot analysis. The following applies: dose 10-20 µM.
Sequence of Dipeptidyl peptidase 1 (P53634 25-134 limits assumed): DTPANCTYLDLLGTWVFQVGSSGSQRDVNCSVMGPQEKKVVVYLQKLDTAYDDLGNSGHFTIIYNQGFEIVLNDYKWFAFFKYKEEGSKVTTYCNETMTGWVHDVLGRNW
Sequence of Dipeptidyl peptidase 1 (P53634 231-394 limits assumed): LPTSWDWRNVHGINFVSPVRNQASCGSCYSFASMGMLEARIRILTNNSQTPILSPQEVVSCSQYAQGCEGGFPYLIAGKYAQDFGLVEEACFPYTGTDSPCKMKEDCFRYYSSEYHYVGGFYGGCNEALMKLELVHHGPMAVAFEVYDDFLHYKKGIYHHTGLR
Sequence of Dipeptidyl peptidase 1 (P53634 395-463 limits assumed): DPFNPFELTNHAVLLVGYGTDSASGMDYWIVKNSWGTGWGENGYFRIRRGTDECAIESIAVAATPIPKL
Series [5] has as its target T1, Myeloblastin (Mus musculus) (UniProt Q61096).
T1 sequence (whole entry): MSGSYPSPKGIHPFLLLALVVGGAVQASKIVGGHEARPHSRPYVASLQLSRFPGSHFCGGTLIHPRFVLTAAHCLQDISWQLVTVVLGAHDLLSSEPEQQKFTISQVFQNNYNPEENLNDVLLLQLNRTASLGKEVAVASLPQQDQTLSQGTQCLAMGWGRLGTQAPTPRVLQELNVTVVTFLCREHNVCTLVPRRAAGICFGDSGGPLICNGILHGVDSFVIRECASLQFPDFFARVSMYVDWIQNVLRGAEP
Put plainly: In vivo inhibition of proteinase 3 in C57BL/6 mouse assessed as reduction in proteinase 3 activity in blood at 30 mg/kg, po administered once daily for 6 days by fluorescence based microplate reader relative to control. It counts as functional, organism-based. The following applies: time 6.0 day.

Series [6] has as its target T2, Dipeptidyl peptidase 1 (Mus musculus) (UniProt P97821).
T2 sequence (whole entry): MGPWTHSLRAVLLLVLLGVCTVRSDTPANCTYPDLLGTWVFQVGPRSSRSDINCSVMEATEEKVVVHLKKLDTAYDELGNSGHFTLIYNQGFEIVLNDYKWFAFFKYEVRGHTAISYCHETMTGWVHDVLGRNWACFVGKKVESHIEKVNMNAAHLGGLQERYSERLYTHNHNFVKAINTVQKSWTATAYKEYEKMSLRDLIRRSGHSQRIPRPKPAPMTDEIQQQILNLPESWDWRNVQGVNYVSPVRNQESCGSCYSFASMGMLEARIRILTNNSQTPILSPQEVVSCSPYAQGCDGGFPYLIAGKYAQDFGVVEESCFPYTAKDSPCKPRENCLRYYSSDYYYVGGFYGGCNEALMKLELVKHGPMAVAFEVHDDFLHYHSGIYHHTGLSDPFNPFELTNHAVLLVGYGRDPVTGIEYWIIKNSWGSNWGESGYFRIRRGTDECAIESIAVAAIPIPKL
The series can be described thus: In vivo inhibition of Cathepsin C in C57BL/6 mouse assessed as reduction in cathepsin C activity in blood administered orally once daily for 6 days by fluorescence based microplate reader. The format is functional, organism-based. The following applies: dose 5-30 mg/kg, route po, time 6.0 day.

For series [7], the system named is Mus musculus. The series can be described thus: Anti-inflammatory activity in DSS-induced ulcerative colitis male C57BL/6 mouse model assessed as increase in body weight at 60 mg/kg administered via gavage for 10 days. The following applies: time 10.0 day. The format is functional, organism-based.
For series [8], the target named is T3, Myeloblastin (Homo sapiens) (UniProt P24158).
T3 sequence (whole entry): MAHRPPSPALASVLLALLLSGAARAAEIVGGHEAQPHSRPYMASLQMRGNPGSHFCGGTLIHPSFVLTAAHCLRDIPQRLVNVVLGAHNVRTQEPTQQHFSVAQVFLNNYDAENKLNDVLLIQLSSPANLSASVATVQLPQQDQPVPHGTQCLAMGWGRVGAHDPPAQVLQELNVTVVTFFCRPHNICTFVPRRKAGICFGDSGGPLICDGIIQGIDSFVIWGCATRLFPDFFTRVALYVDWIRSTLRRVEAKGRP
Put plainly: Inhibition of proteinase 3 in human U-937 cells using aminobenzoyl-Val-Ala-Asp-Cys-Ala-Asp-Gln-ethylenediamine 2,4-dinitrophenyl as substrate at 10 uM incubated for 5 days by fluorescence based microplate reader analysis relative to control. It counts as cell-based. The following applies: time 5.0 day.

A short description of series [9]: Oral bioavailability in male Sprague-Dawley rat at 10 mg/kg measured at 5 to 1440 mins by LC-MS/MS analysis. It counts as ADME, organism-based. The following applies: in vivo, time 5-1440 min.

SMILES strings stand for the structures. Active and inactive are the calls of the source. The rule behind the calls is not given here.

As for `O=C1Nc2c(cccc2-c2ccc(NC3CCOCC3)cc2)/C1=C/c1ccnc2ccccc12`, in the series with Mus musculus [1], the outcome was inactive. Moreover, the Activity result with Mus musculus [2] was “Dose-dependent-effect; Significant Reduction Observed In High Dose Group”; with Mus musculus [3], “Dose-dependent-effect; Significant Reduction Observed In High Dose Group”; with Mus musculus [4], 45%; on Dipeptidyl peptidase 1, “Dose-dependent-effect; Significant Thermal Stability Observed”. The values for the inhibition in series [5], in series [6] and in series [8] were 44.8%, “Dose-dependent-effect” and 33.1%, respectively. Moreover, the result with Mus musculus [7] was Active. This compound also gave a F in [9] of 29.05%.

Broadly, the inhibition is the percentage by which the read-out fell short of the control.
